{"source": "paper PMC13095444", "about": "“Discovery of RGS2-FBXO44 interaction inhibitors using a cell-based NanoBit assay” (Molecular Pharmacology, 2025)", "key": {"[1]": {"molecular_target": "T1, RGS2-FBXO44 interaction (Homo sapiens, UniProt P41220)", "T1 construct": "expressed in transfected cells", "T1 sequence (P41220 1-211)": "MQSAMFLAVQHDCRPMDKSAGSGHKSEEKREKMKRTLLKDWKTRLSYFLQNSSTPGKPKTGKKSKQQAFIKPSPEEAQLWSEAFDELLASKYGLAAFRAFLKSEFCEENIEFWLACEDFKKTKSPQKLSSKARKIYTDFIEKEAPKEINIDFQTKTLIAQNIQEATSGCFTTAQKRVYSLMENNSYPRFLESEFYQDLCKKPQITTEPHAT", "assay": "Coimmunoprecipitation of RGS2-HA and FLAG-FBXO44", "type": "cell-based", "conditions": "100 μM; anti-HA IP, FLAG-FBXO44 normalized to input, vs DMSO", "description": "The cells were harvested in RIPA buffer containing protease inhibitors. The cells were then lysed by incubating on ice with occasional vortexing for 30 minutes. The cell lysates were centrifuged at 9600 × g for 10 minutes, and the supernatants were precleared by incubating with 40 μL prewashed protein A agarose beads (Roche) for 1 hour with slow rotation at 4 °C. The samples were then centrifuged at 10,000 rpm for 1 minute, and the supernatant was used to determine total protein concentration with the Pierce BCA Protein Assay Kit (Thermo Scientific). In total, 500 μg of total protein was used for each reaction. The samples were incubated with 100 μM compound 10 for 30 minutes with rotation at 4 °C. An equal amount of DMSO was used as a vehicle. Additionally, 20 μL was removed from each sample (input); 3 μL of rabbit anti-HA antibody (H6908; Sigma Aldrich) and 40μL of protein A agarose beads (Roche) were added to each sample prior to incubation on rotator at 4 °C overnight. The samples were centrifuged at 9600 × g for 5 minutes at 4 °C, and the supernatant was removed. The samples were washed once with 1 mL RIPA buffer and then 3× with 1 mL PBS. Bound proteins were eluted by heating the samples at 95 °C in 30 μL of SDS sample buffer for 10 minutes. The samples were centrifuged at 10,000 rpm for 5 minutes at 4 °C, and the supernatants were subjected to SDS-PAGE and western blot analysis. […]"}, "[2]": {"molecular_target": "T2, RGS2 (Homo sapiens, UniProt P41220)", "T2 construct": "Because both full-length RGS2 and FBXO44 are extremely difficult to express as recombinant proteins, we opted for a cell-based method; expressed in transfected cells; host or cells: HEK-293T, transient transfection", "T2 sequence (P41220 1-211)": "T1 sequence (P41220 1-211)", "assay": "Cellular thermal shift assay (CETSA), RGS2-HA", "type": "binding", "conditions": "100 μM overnight (16–18 hours); gradient 40–60 °C; vs DMSO", "description": "(§1) The cells in 100 mm dishes were harvested by trypsination in reduced serum media and transferred to 15 mL conical tubes. The cells were centrifuged at 300 × g for 3 minutes. Media was removed, and the cell pellet was washed with 10 mL of PBS. The cells were then resuspended in 500 μL of PBS and aliquoted into polymerase chain reaction (PCR) tubes. The cells were then heated in a PCR gradient (40–60 °C) for 3 minutes and then transferred to a 25 °C PCR block for 3 minutes. Following this, cells were immediately flash-frozen using liquid nitrogen. The cells were freeze-thawed 3 times to lyse the cells and then spun down at 20,000 × g for 20 minutes. The supernatant was then added to sample buffer and heated for 5 minutes at 95 °C before SDS-PAGE and western blot analysis.\n(§2) We next assessed whether the action of compound 10 to inhibit the RGS2-FBXO44 interaction is through direct binding to either protein. […] The cells were lysed and analyzed by western blot to determine melting temperatures (Tm). […] We also assessed the effect of compound 10 on the Tm for RGS4, which is closely related to RGS2 and also subject to proteasomal degradation, however, independent of FBXO44 ([Lee et al, 2005]; [Sjögren et al, 2015])."}, "[3]": {"molecular_target": "T3, RGS4 (Homo sapiens, UniProt P49798)", "T3 construct": "expressed in transfected cells; host or cells: HEK-293T, transient transfection", "T3 sequence (P49798 whole entry, species assumed)": "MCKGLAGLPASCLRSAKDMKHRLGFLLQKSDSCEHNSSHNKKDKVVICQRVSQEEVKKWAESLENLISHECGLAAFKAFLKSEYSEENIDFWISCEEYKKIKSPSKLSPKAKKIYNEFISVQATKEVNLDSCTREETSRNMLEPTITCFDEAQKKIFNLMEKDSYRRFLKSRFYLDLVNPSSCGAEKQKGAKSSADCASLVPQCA", "assay": "Cellular thermal shift assay (CETSA), RGS4-HA", "type": "binding", "conditions": "100 μM overnight (16–18 hours); gradient 40–60 °C; vs DMSO", "description": "as §1, §2"}}}
{"smiles": "CCC1CCCCN1S(=O)(=O)c1cc(Br)ccc1OC", "note": "(stereo not drawn) [Compound 10]", "values": [{"measurement": "Association between RGS2 and FBXO44 (co-IP)", "setting": "[1]", "value": "almost completely blocked"}, {"measurement": "Increase in the Tm for RGS2", "setting": "[2]", "value": 2.4, "unit": "°C"}, {"measurement": "Effect on the Tm for RGS4", "setting": "[3]", "value": "no significant effect"}]}
